Source: patent publication US9090593B2, “Bicyclic compounds as Pim inhibitors” (AMGEN INC., priority 2010, dated 2015)
Structures can show the parent of a compound that is named as a salt. Where two headings read alike, the source gives them in different places.

Experiments:
[1] = target: T1, full length recombinant Pim-1 protein (Homo sapiens, UniProt P11309); experiment: Pim-1 enzyme assay (HTRF, phosphorylation of biotinylated-BAD (S112) peptide); type: biochemical; conditions: read-out: Pim_1_IC50
T1 construct: by full length recombinant Pim-1, Pim-2, or Pim-3 protein; hexahistidine tag followed by a thrombin cleavage site (N); made in house; host or cells: Sf9 (baculovirus) or E. coli (pET28)
In short: (§1)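 Full-length His-tagged Pim-1 or Pim-2 (Sf9 or E. coli expressed, purified) phosphorylated biotinylated BAD (S112) peptide in 60 mM Hepes pH 7.0, 0.05% BSA, 2 mM DTT. Reaction stopped with 3 mM EDTA; phospho-BAD read by HTRF with Eu anti-phospho-BAD antibody and streptavidin-APC. IC50 from percent of control by 4-parameter logistic fit.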

[2] = tested on: KMS-Cell; experiment: KMS cell IC50 (Table 4); type: cell-based; conditions: KMS cells
[3] = target: T2, full length recombinant Pim-2 protein (Homo sapiens, UniProt Q9P1W9); experiment: Pim-2 enzyme assay (HTRF, phosphorylation of biotinylated-BAD (S112) peptide); type: biochemical; conditions: read-out: Pim2_IC50
T2 construct: by full length recombinant Pim-1, Pim-2, or Pim-3 protein; hexahistidine tag followed by a thrombin cleavage site (N); made in house; host or cells: Sf9 (baculovirus) or E. coli (pET28)
In short: as §1

[4] = target: T3, Pim-1 stably transfected into the U2OS human osteogenic sarcoma line (Homo sapiens, UniProt P11309); experiment: Pim cell assay, phospho-BAD normalized against total BAD, U2OS stably transfected with Pim-1; type: cell-based; conditions: read-out: Pim1_Cell_IC50
T3 construct: expressed in transfected cells; host or cells: U2OS human osteogenic sarcoma line
In short: (§2)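 U2OS cells stably expressing Pim-1 or Pim-2 were plated overnight at 37 °C, then dosed over a 10-point curve (final 0.3% DMSO; DMSO alone as high control). Lysates assayed for phospho- and total BAD by Meso Scale immunoassay; % phosphoprotein = (2×phospho)/(phospho+total)×100.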

[5] = target: T4, Pim-2 stably transfected into the U2OS human osteogenic sarcoma line (Homo sapiens, UniProt Q9P1W9); experiment: Pim cell assay, phospho-BAD normalized against total BAD, U2OS stably transfected with Pim-2; type: cell-based; conditions: read-out: Pim2_Cell_IC50; further: high dose 31.6 µM
T4 construct: expressed in transfected cells; host or cells: U2OS human osteogenic sarcoma line
In short: as §2

[6] = target: T5, full length recombinant Pim-3 protein (Homo sapiens, UniProt Q86V86); experiment: Pim-3 enzyme assay (HTRF, phosphorylation of biotinylated-BAD (S112) peptide); type: biochemical; conditions: read-out: Pim3 IC50
T5 construct: by full length recombinant Pim-1, Pim-2, or Pim-3 protein; purchased Millipore (UK)
In short: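 Full-length recombinant Pim-3 phosphorylates biotinylated BAD (S112) peptide in 60 mM Hepes pH 7.0, 0.05% BSA, 2 mM DTT; reaction stopped with 3 mM EDTA. Phospho-BAD detected by HTRF (Eu anti-phospho-BAD S112 antibody, streptavidin-APC). IC50 from percent-of-control values fitted to a 4-parameter logistic model.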

[7] = U2OS cells stably transfected with Pim-1, phospho-BAD, high dose […]
[8] = U2OS cells stably transfected with Pim-2, phospho-BAD, high dose […]

T4 sequence (Q9P1W9 whole entry): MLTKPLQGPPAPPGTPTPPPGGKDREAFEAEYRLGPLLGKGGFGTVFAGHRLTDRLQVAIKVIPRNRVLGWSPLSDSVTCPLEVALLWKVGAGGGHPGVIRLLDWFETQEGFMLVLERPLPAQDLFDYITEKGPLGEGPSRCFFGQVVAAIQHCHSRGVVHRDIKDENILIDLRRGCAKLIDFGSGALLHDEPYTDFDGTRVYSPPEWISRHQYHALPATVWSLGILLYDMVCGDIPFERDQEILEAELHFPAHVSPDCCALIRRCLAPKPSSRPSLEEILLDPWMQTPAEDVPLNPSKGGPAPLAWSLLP
T2 sequence (Q9P1W9 whole entry): as above
T3 sequence (P11309 whole entry): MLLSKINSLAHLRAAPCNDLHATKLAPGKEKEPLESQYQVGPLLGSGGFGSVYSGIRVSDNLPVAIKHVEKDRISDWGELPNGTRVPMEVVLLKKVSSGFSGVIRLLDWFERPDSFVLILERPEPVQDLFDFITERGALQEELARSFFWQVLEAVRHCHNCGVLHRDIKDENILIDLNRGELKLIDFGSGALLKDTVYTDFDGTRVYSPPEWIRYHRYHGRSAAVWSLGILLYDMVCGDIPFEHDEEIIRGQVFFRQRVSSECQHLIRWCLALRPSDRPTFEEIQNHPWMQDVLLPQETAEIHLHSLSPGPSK
T1 sequence (P11309 whole entry): as above

Row | Compound | IC50 [1] | IC50 [2] | IC50 [3] | IC50 [4] | IC50 ([1]; enzyme assay, Pim-1) | IC50 [5] | IC50 ([3]; enzyme assay, Pim-2) | IC50 [6] | IC50 [4, 7] | IC50 [5, 8]
1 | Fc1cccc(F)c1-c1ccc2[nH]nc(-c3cncc(OC4CNCC5CC54)n3)c2c1 (stereo not shown) [Example 452] | 20 nM | 9410 nM | 97 nM | – | – | – | – | – | – | –
2 | O=c1cc(-c2n[nH]c3ccc(-c4ccc(Cl)cc4F)cc23)nc(O[C@@H]2CNCC[C@H]2F)[nH]1 (racemic) [Example 283, 6-(5-(4-chloro-2-fluorophenyl)-1H-indazol-3-yl)-2-((trans-4-fluoropiperidin-3-yl)oxy)pyrimidin-4(3H)-one trifluoroacetate] | 2 nM | 1890 nM | 1 nM | – | – | – | – | – | – | –
3 | COC(=O)c1ccc2[nH]nc(-c3ccnc(N4CCC(N)CC4)n3)c2c1 [Example 491] | 4 nM | 1450 nM | 8 nM | – | – | – | – | – | – | –
4 | CC(c1ccc2[nH]nc(-c3cncc(O[C@H]4CNCCC45CC5)n3)c2c1)C(F)(F)F (stereo partly drawn) [Example 258, 3-(6-((4R)-6-azaspiro[25]oct-4-yloxy)-2-pyrazinyl)-5-(2,2,2-trifluoro-1-methylethyl)-1H-indazole] | 9 nM | 3190 nM | 6 nM | – | – | – | – | – | – | –
5 | N#Cc1ccc(-c2ccc3[nH]nc(-c4cncc(O[C@H]5CNCCC56CC6)n4)c3c2)c(F)c1 [Example 456] | 4 nM | 5490 nM | 3 nM | – | – | – | – | – | – | –
6 | CC(c1ccc2[nH]nc(-c3cncc(O[C@H]4CNCCC45CC5)n3)c2c1)C(F)(F)F (single isomer, unassigned) [Example 259] | 13 nM | 2800 nM | 6 nM | – | – | – | – | – | – | –
7 | CC[C@H]1CCNC[C@@H]1Oc1cncc(-c2n[nH]c3ccc(-c4c(F)cccc4F)cc23)n1 [Example 398, 5-(2,6-difluorophenyl)-3-(6-(((3R,4S)-4-ethyl-3-piperidinyl)oxy)-2-pyrazinyl)-1H-indazole] | 9 nM | 10700 nM | 12 nM | – | – | – | – | – | – | –
8 | Fc1ccc(F)c(-c2ccc3[nH]nc(-c4cncc(O[C@H]5CNCCC56CC6)n4)c3c2)c1 [Example 442] | 2 nM | 6430 nM | 4 nM | – | – | – | – | – | – | –
9 | CS(=O)(=O)c1cc(F)c(-c2ccc3[nH]nc(-c4cncc(O[C@H]5CNCCC56CC6)n4)c3c2)c(F)c1 [Example 467] | 3 nM | 546 nM | 3 nM | – | – | – | – | – | – | –
10 | Cc1nc(-c2cccc(-c3ccc4[nH]cc(-c5cncc(O[C@@H]6CCCNC6)n5)c4c3)c2)cs1 [Example 357] | 13 nM | > 31600 nM | 179 nM | – | – | – | – | – | – | –
11 | N#Cc1ccncc1-c1ccc2[nH]nc(-c3cncc(O[C@H]4CNCCC45CC5)n3)c2c1 [Example 411] | 4 nM | 1220 nM | 12 nM | – | – | – | – | – | – | –
12 | CC(=O)Nc1ccc(-c2ccc3[nH]nc(-c4cncc(O[C@H]5CNCCC56CC6)n4)c3c2)c(F)c1 [Example 462] | – | 560 nM | 1 nM | – | – | – | – | – | – | –
13 | Nc1ccc(-c2ccc3[nH]nc(-c4cncc(O[C@H]5CNCCC56CC6)n4)c3c2)c(F)n1 [Example 466] | – | 346 nM | 1 nM | – | – | – | – | – | – | –
14 | N#Cc1ncccc1-c1ccc2[nH]nc(-c3cncc(O[C@H]4CNCCC45CC5)n3)c2c1 [Example 410] | 9 nM | 1750 nM | 7 nM | – | – | – | – | – | – | –
15 | O=c1cc(-c2n[nH]c3cc(F)c(-c4c(F)cccc4F)cc23)nc(O[C@H]2CNCC[C@@H]2F)[nH]1 [Example 544] | – | 633 nM | 1 nM | – | – | – | – | – | – | –
16 | c1cc(-c2ccc3[nH]cc(-c4cncc(O[C@@H]5CCCNC5)n4)c3c2)cc(-c2nnn[nH]2)c1 [Example 355] | 20 nM | > 31600 nM | 104 nM | – | – | – | – | – | – | –

Row | Compound | IC50 [1] | IC50 [2] | IC50 [3] | IC50 [4] | IC50 ([1]; enzyme assay, Pim-1) | IC50 [5] | IC50 ([3]; enzyme assay, Pim-2) | IC50 [6] | IC50 [4, 7] | IC50 [5, 8]
17 | Fc1ccc(Cl)cc1-c1ccc2[nH]nc(-c3cncc(O[C@H]4CNCCC45CC5)n3)c2c1 [Example 443] | 1 nM | 4640 nM | 5 nM | – | – | – | – | – | – | –
18 | N#Cc1ccccc1-c1ccc2[nH]nc(-c3cncc(O[C@H]4CNCCC45CC5)n3)c2c1 [Example 408] | 1 nM | 1300 nM | 1 nM | – | – | – | – | – | – | –
19 | c1cc2[nH]nc(-c3cncc(O[C@H]4CNCCC45CC5)n3)c2cc1C1CCC1 [Example 453] | 4 nM | 4190 nM | 7 nM | – | – | – | – | – | – | –
20 | O=c1cc(-c2n[nH]c3ccc(-c4nccs4)cc23)nc(O[C@@H]2CNCC[C@H]2F)[nH]1 (racemic) [Example 289, 2-((trans-4-fluoropiperidin-3-yl)oxy)-6-(5-(thiazol-2-yl)-1H-indazol-3-yl)pyrimidin-4(3H)-one trifluoroacetate] | – | 3540 nM | 1 nM | – | – | – | – | – | – | –
21 | NC1CCN(c2cncc(-c3c[nH]c4ccc(-c5ccccc5F)nc34)c2)CC1 [Example 34, 1-(5-(5-(2-fluorophenyl)-1H-pyrrolo[3,2-b]pyridin-3-yl)pyridin-3-yl)piperidin-4-amine] | – | – | – | 1010 nM | 27 nM | > 31.6 µM | 380 nM | 29 nM | – | –
22 | CCNc1cncc(-c2n[nH]c3ccc(-c4c(F)cccc4F)cc23)n1 [Example 180, 6-(5-(2,6-difluorophenyl)-1H-indazol-3-yl)-N-ethyl-2-pyrazinamine] | – | – | – | – | 76 nM | – | 643 nM | 81 nM | 2130 nM | > 31.6 µM
23 | NC1CCN(c2cncc(-c3n[nH]c4ccc(-c5cc(C(=O)N6CCOCC6)ccc5F)cc34)n2)CC1 [Example 42, 1-(6-(5-(2-fluoro-5-(4-morpholinylcarbonyl)phenyl)-1H-indazol-3-yl)-2-pyrazinyl)-4-piperidinamine] | – | – | – | – | 32 nM | – | 41 nM | 20 nM | 2800 nM | 9.84 µM
24 | CC(C)(C)Nc1cncc(-c2n[nH]c3ccc(-c4c(F)cccc4F)cc23)n1 [Example 183, N-tert-butyl-6-(5-(2,6-difluorophenyl)-1H-indazol-3-yl)-2-pyrazinamine] | – | – | – | – | 44 nM | – | 679 nM | 44 nM | 4260 nM | > 31.6 µM
25 | N[C@H]1CCCN(c2cncc(-c3c[nH]c4ccc(-c5c(F)cccc5F)cc34)n2)C1 [Example 201, (3S)-1-(6-(5-(2,6-difluorophenyl)-1H-indol-3-yl)-2-pyrazinyl)-3-piperidinamine] | – | – | – | – | 1 nM | – | 66 nM | 5 nM | 611 nM | > 31.6 µM
26 | COc1ccc2c(-c3ccc4[nH]nc(-c5cncc(N6CCC(N)CC6)n5)c4c3)ccnc2c1 [Example 101, 1-(6-(5-(7-methoxy-4-quinolinyl)-1H-indazol-3-yl)-2-pyrazinyl)-4-piperidinamine] | – | – | – | – | 4 nM | – | 55 nM | 10 nM | 269 nM | > 31.6 µM
27 | C[C@H]1CCNC[C@@H]1Oc1cncc(-c2n[nH]c3ccc(-c4c(F)cccc4F)cc23)n1 [Example 198, 5-(2,6-difluorophenyl)-3-(6-(((3R,4S)-4-methyl-3-piperidinyl)oxy)-2-pyrazinyl)-1H-indazole] | – | – | – | – | 4 nM | – | 13 nM | 5 nM | 146 nM | 5.09 µM
28 | O=C(NC1CC1)c1ccc(F)c(-c2ccc3[nH]nc(-c4cncc(O[C@@H]5CCCNC5)n4)c3c2)c1 [Example 139, N-cyclopropyl-4-fluoro-3-(3-(6-((3R)-3-piperidinyloxy)-2-pyrazinyl)-1H-indazol-5-yl)benzamide] | – | – | – | – | 13 nM | – | 13 nM | 12 nM | 454 nM | 3.78 µM
29 | COc1ccc(F)c(-c2ccc3[nH]nc(-c4cncc(N5CCC(N)CC5)n4)c3c2)c1 [Example 61, 1-(6-(5-(2-fluoro-5-methoxyphenyl)-1H-indazol-3-yl)-2-pyrazinyl)-4-piperidinamine] | – | – | – | – | 10 nM | – | 65 nM | 6 nM | 3010 nM | > 31.6 µM
30 | CN1CCOc2cc(-c3ccc4[nH]nc(-c5cncc(O[C@@H]6CCCNC6)n5)c4c3)cnc21 [Example 130, 4-methyl-7-(3-(6-((3R)-3-piperidinyloxy)-2-pyrazinyl)-1H-indazol-5-yl)-3,4-dihydro-2H-pyrido[3,2-b][1,4]oxazine] | – | – | – | – | 7 nM | – | 25 nM | 8 nM | 208 nM | 9.24 µM
31 | O=c1cc(-c2n[nH]c3ccc(-c4c(F)cccc4F)cc23)nc(OC2CNCCC2F)[nH]1 (stereo not shown) [Example 555] | – | 307 nM | – | – | – | – | – | – | – | –
32 | NC1CCN(c2cncc(-c3n[nH]c4ccc(-c5ccc6cc[nH]c6n5)cc34)n2)CC1 [Example 95, 1-(6-(5-(1H-pyrrolo[2,3-b]pyridin-6-yl)-1H-indazol-3-yl)-2-pyrazinyl)-4-piperidinamine] | – | – | – | – | 5 nM | – | 82 nM | 3 nM | 384 nM | > 31.6 µM
